One assay has as its target T1, Taste receptor type 2 member 14 (Homo sapiens) (UniProt Q9NYV8).
T1 sequence (whole entry): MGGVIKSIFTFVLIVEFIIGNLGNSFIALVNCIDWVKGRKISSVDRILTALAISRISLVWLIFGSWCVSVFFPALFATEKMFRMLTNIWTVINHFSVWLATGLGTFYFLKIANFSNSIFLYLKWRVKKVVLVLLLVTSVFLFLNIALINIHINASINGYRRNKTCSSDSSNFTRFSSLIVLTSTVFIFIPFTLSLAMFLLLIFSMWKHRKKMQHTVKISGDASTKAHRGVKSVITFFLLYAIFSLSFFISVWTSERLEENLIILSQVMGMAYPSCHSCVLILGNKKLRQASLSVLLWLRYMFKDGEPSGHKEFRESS
Put plainly: Agonist activity at human TAS2R14 transfected in HEK293T cells assessed as IP1 accumulation at 10 uM measured after 150 mins by IP1 accumulation assay relative to flufenamic acid. The conditions noted are these: filed as agonist. In kind it is cell-based.
Broadly, the Emax is the size of the effect at its maximum, as opposed to the concentration needed. Regarding `O=C(O)c1ccccc1Nc1ccnc(C(F)(F)F)c1`, the maximal response (Emax) came out at 52%.

Another assay has as its target T2, Alpha-2C adrenergic receptor (Homo sapiens, UniProt P18825).
T2 sequence (P18825 whole entry): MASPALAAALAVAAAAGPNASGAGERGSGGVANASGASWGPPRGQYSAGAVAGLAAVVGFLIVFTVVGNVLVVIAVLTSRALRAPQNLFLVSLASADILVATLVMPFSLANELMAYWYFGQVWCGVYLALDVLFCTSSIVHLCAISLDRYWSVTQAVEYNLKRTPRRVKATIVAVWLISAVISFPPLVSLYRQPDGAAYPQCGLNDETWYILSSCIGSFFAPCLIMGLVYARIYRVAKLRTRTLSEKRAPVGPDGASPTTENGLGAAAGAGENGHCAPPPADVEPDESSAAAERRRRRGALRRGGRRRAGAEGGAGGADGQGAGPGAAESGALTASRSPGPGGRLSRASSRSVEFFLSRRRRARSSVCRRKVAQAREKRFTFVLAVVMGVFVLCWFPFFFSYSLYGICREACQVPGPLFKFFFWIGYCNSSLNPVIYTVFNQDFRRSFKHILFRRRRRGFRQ
Put plainly: Displacement of [3H]RX821002 from human alpha2C receptor stably expressed in HEK293T cells by Cheng-Prusoff equation analysis. In kind it is cell-based.
Details: not given
Broadly, the Ki is the dissociation constant of the complex between target and ligand, obtained from inhibition or displacement. Higher therefore signals a looser hold on the target. For the compound `C#Cc1cc(Nc2ccccc2C(=O)O)cc(C(F)(F)F)c1`, the Ki came to 17 µM.

In the next assay the target is T3, Taste receptor type 2 member 14 (Homo sapiens, UniProt Q9NYV8).
T3 sequence (Q9NYV8 whole entry): T1 sequence (whole entry)
Put plainly: Partial agonist activity at human TAS2R14 transfected in HEK293T cells assessed as IP1 accumulation measured after 150 mins by IP1 accumulation assay. In kind it is cell-based.
Details: not given
A word on the EC50: it is the concentration needed to bring the measured effect to its halfway point. Regarding `FC(F)(F)c1cc(Nc2ccccc2-c2nnn[nH]2)cc(C(F)(F)F)c1`, the 50% effective concentration (EC50) is 0.1 µM.

The next assay deals with T4, Muscarinic acetylcholine receptor M2 (Homo sapiens, UniProt P08172).
T4 sequence (P08172 whole entry): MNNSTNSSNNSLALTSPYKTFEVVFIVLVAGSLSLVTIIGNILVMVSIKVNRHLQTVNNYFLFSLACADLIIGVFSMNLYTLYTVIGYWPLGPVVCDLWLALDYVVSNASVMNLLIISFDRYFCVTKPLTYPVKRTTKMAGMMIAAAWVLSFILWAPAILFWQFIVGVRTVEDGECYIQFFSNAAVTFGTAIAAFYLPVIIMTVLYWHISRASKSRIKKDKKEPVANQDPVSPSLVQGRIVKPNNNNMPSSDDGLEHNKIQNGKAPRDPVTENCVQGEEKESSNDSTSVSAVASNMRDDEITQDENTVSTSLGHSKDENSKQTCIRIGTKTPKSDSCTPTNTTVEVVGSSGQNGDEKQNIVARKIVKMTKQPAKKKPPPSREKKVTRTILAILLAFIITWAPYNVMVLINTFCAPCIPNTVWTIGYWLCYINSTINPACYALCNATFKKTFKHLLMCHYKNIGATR
Put plainly: Displacement of [3H]NMS from human M2 receptor stably expressed in HEK293T cells by Cheng-Prusoff equation analysis. The assay is classed as cell-based.
Details: not given
On the technique in general: In a radioligand displacement assay an active substance lowers the binding of a labelled ligand.
Consider `Cc1cc(C(F)(F)F)nc(Nc2ccccc2-c2nnn[nH]2)n1`, for which the affinity, expressed as Ki, was 2.3 µM.

The target in a further assay is T1, Taste receptor type 2 member 14 (Homo sapiens). Kind of assay: Partial agonist activity at human TAS2R14 transfected in HEK293T cells assessed as IP1 accumulation measured after 150 mins by IP1 accumulation assay relative to control. The conditions noted are these: filed as partial agonist. The assay is classed as cell-based.
For `FC(F)(F)c1cc(Nc2ccccc2-c2nnn[nH]2)cc(C(F)(F)F)c1`, the Emax came to 80%.

Another assay deals with D(3) dopamine receptor (Homo sapiens, UniProt P35462). Put plainly: Displacement of [3H]methylspiperone from human D3 receptor stably expressed in HEK293T cells by Cheng-Prusoff equation analysis. The assay is classed as cell-based.
D(3) dopamine receptor, sequence (P35462 whole entry): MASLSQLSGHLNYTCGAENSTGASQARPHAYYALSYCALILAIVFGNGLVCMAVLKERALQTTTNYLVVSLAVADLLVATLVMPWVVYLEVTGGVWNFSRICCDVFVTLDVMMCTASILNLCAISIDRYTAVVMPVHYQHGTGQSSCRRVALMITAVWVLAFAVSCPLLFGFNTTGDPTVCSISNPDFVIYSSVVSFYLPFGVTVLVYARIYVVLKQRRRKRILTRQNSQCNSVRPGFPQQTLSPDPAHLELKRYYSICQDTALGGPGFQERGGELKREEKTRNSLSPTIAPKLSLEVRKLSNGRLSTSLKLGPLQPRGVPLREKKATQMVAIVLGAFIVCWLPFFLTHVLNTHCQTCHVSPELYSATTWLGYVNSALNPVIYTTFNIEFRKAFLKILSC
Details: not given
`Cc1cc(C(F)(F)F)nc(Nc2ccccc2-c2nnn[nH]2)n1` gave a Ki of 1.1 µM.

The target in a further assay is T5, Alpha-2B adrenergic receptor (Homo sapiens, UniProt P18089).
T5 sequence (P18089 whole entry): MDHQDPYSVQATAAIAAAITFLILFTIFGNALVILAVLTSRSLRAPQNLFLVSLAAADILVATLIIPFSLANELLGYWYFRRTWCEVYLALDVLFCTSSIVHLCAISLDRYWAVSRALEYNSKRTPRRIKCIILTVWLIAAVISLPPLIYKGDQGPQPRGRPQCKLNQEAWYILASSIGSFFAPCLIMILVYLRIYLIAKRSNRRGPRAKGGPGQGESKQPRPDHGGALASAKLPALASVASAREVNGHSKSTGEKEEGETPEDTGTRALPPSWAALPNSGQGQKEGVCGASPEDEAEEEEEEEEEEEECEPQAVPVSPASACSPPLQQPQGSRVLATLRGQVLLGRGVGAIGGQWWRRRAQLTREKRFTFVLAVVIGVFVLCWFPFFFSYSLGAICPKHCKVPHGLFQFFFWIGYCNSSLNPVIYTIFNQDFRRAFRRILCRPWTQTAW
Kind of assay: Displacement of [3H]RX821002 from human alpha2B receptor stably expressed in HEK293T cells by Cheng-Prusoff equation analysis. The assay is classed as cell-based.
Details: not given
`C#Cc1cc(Nc2ccccc2C(=O)O)cc(C(F)(F)F)c1` had a Ki of 16 µM.

The target in a further assay is T6, D(2) dopamine receptor (Homo sapiens, UniProt P14416). Kind of assay: Displacement of [3H]methylspiperone from human D2L receptor stably expressed in CHO cells by Cheng-Prusoff equation analysis. In kind it is cell-based.
T6 sequence (P14416 whole entry): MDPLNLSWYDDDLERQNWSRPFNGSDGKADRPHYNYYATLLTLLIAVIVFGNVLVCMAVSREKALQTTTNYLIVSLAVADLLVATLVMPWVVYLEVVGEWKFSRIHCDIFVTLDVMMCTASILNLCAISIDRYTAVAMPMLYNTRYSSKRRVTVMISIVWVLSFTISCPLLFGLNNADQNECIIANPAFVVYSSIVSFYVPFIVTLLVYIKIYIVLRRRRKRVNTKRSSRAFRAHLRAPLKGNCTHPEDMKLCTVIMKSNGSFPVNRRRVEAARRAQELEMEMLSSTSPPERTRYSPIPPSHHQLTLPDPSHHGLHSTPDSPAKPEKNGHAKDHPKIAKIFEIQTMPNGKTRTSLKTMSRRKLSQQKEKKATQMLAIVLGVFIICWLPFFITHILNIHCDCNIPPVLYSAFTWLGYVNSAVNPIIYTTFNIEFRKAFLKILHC
Details: not given
Compound `Cc1cc(C(F)(F)F)nc(Nc2ccccc2-c2nnn[nH]2)n1` showed an inhibition constant (Ki) of 16 µM.

The target of another assay is T6, D(2) dopamine receptor. Put plainly: Displacement of [3H]methylspiperone from human D2S receptor stably expressed in CHO cells by Cheng-Prusoff equation analysis. In kind it is cell-based.
Details: not given
For the compound `Cc1cc(C(F)(F)F)nc(Nc2ccccc2-c2nnn[nH]2)n1`, the inhibition constant (Ki) is 7.3 µM.

The target in the next assay is T1, Taste receptor type 2 member 14 (Homo sapiens). Put plainly: Agonist activity at human TAS2R14 transfected in HEK293T cells assessed as IP1 accumulation at 30 uM measured after 150 mins by IP1 accumulation assay relative to flufenamic acid. The assay is classed as cell-based.
Details: not given
As to `O=C(O)c1cccc(Nc2cccc(C(F)(F)F)c2)c1`, the Emax worked out at 27%.

The same assay, now with this note: filed as agonist.
For the compound `CN(c1cccc(C(F)(F)F)c1)c1ccccc1C(=O)O`, the maximal response (Emax) turned out to be 59%.

In the case of `O=C(O)c1ccccc1Nc1cc(C#CC2CCCC2)cc(C(F)(F)F)c1`, the Emax was determined as 64%.

The next assay addresses T3, Taste receptor type 2 member 14. Kind of assay: Agonist activity at human TAS2R14 transfected in HEK293T cells assessed as IP1 accumulation measured after 150 mins by IP1 accumulation assay. The assay is classed as cell-based.
Details: not given
In the case of `Cc1ccc(C(F)(F)F)cc1Nc1ccccc1C(=O)O`, the EC50 came out at 0.39 µM.

Take `O=C(O)c1ccccc1Nc1cccc(Cl)c1`: the EC50 came out at 0.95 µM.

On to `Cc1c(Nc2ccccc2C(=O)O)cccc1C(F)(F)F`, for which the half-maximal effective concentration (EC50) is 1.8 µM. Still for that read-out and setting: with `CC(C)(C)c1cc(C(F)(F)F)nc(Nc2ccccc2-c2nnn[nH]2)n1` the figure was 0.64 µM. Take `FC(F)(F)c1cccc(Nc2ccccc2-c2nnn[nH]2)n1`: the EC50 was found to be 0.098 µM. `Cc1cc(C(F)(F)F)nc(Nc2ccccc2-c2nnn[nH]2)n1`: the half-maximal effective concentration (EC50) was 0.072 µM. On to `O=C(O)c1ccccc1Nc1cccc(S(F)(F)(F)(F)F)c1`, for which the concentration for a half-maximal effect (EC50) came out at 0.19 µM. Regarding `N#Cc1cc(C(F)(F)F)nc(Nc2ccccc2-c2nnn[nH]2)n1`, the EC50 stood at 0.3 µM.

Consider `O=C(O)c1ccccc1Nc1cccc(OC(F)F)c1`, for which the EC50 came to 0.93 µM. For the compound `N#Cc1ccc(Nc2ccccc2C(=O)O)cc1C(F)(F)F`, the concentration giving a half-maximal response (EC50) is 0.17 µM.

On to `Oc1cc(C(F)(F)F)nc(Nc2ccccc2-c2nnn[nH]2)n1`, for which the half-maximal effective concentration (EC50) was 6.8 µM. With `FC(F)(F)c1ccnc(Nc2ccccc2-c2nnn[nH]2)n1`, the EC50 worked out at 0.16 µM. Same read-out and setting: next, `O=C(O)c1ccccc1Nc1nccc(C(F)(F)F)n1`: 1.6 µM; `CC#Cc1cc(Nc2ccccc2C(=O)O)cc(C(F)(F)F)c1`: 0.38 µM; `O=C(O)c1ccccc1Nc1cc(Br)cc(C(F)(F)F)c1`: 0.23 µM. As to `O=C(O)c1ccccc1Nc1ccc(Br)c(C(F)(F)F)c1`, the EC50 came out at 0.3 µM. With `Cc1ccc(Nc2ccccc2C(=O)O)cc1C(F)(F)F`, the concentration giving a half-maximal response (EC50) was 0.33 µM. On to `O=C(O)c1ccccc1Nc1cccc(C(F)(F)F)n1`, for which the EC50 turned out to be 0.67 µM.

Regarding `FC(F)(F)c1cc(Cl)nc(Nc2ccccc2-c2nnn[nH]2)n1`, the EC50 was 0.54 µM.

With `FC(F)(F)c1ccnc(Nc2ccccc2-c2nnn[nH]2)c1`, the EC50 is 0.36 µM. Consider `Cc1cc(Nc2ccccc2C(=O)O)cc(C(F)(F)F)c1`, for which the EC50 stood at 0.19 µM.

In the case of `C#Cc1cc(C(F)(F)F)nc(Nc2ccccc2-c2nnn[nH]2)n1`, the EC50 came to 1.4 µM. Turning to `O=C(O)c1ccccc1Nc1cc(C(F)(F)F)ccc1Br`, the concentration giving a half-maximal response (EC50) was 0.64 µM.

With `FC(F)(F)c1cc(I)nc(Nc2ccccc2-c2nnn[nH]2)n1`, the EC50 came to 0.75 µM. Turning to `O=C(O)c1ccccc1Nc1cccc(C(F)(F)F)c1Br`, the half-maximal effective concentration (EC50) is 2.1 µM.

Turning to `N#Cc1cc(Nc2ccccc2C(=O)O)cc(C(F)(F)F)c1`, the EC50 is 0.18 µM.

`FC(F)(F)c1cc(Nc2ccccc2-c2nnn[nH]2)ccn1`: the EC50 came out at 3.5 µM. The same measure, in the same setting: with `FC(F)(F)c1nccc(Nc2ccccc2-c2nnn[nH]2)n1` the figure was 1.1 µM; with `C#Cc1cc(Nc2ccccc2C(=O)O)cc(C(F)(F)F)c1`, 0.15 µM. As to `N#Cc1ccc(C(F)(F)F)cc1Nc1ccccc1C(=O)O`, the concentration giving a half-maximal response (EC50) was found to be 0.42 µM. `O=C(O)c1ccccc1Nc1cncc(C(F)(F)F)c1`: the EC50 came to 1.2 µM.

Source of the values: ChEMBL document CHEMBL5247646, “Discovery of 2-Aminopyrimidines as Potent Agonists for the Bitter Taste Receptor TAS2R14” (J Med Chem, 2023).
